Measurements: patent publication US5621102A, “Process for preparing enantiomerically pure xanthine derivatives” (Cell Therapeutics, Inc., priority 1995, dated 1997)

Key:
[1] = tested on: lysophosphatidic acid acyl transferase (LPAAT); assay: in vitro inhibition of LPAAT in 3T3 Ras-transformed fibroblasts stimulated with IL-1β; format: cell-based
Experimental: FIG. 17 illustrates a comparison of CT1501R, its S isomer CT1501S, and PTX on in vitro inhibition of lysophosphatidic acid acyl transferase (LPAAT), an enzyme involved in second messenger signaling. […] LPAAT activity was determined in 3T3 Ras-transformed fibroblasts stimulated with IL-1β.
A method described here permits differentiation of the various subspecies of PA and DAG based upon acyl chain composition. This can differentiate those compounds that activate (and inhibit activation of) the present second messenger pathway from other pathways, such as the classical PI pathway. The present second messenger pathway involves substrates with unsaturated fatty acids in the sn-2 position other than arachidonate and those sub species of PAPH and LPAAT that are not involved in normal cellular housekeeping functions that are part of the classical PI pathway. […]
One in vitro assay measures inhibition of the relevant enzymes lysophosphatidic acid acyltransferase (LPAAT) and phosphatidic acid phosphoryl hydrolase (PAPH). […] It is important to note that the assay method permits discrimination between various forms of PA and DAG so that those relevant to the pathway affected by the (R) or (S) compounds of the invention can be measured directly. […] Thus, the relevant unsaturated (non-arachidonic) PA and DAG subspecies may be detected. […]

[2] = tested on: TNF-α release from LPS-activated mouse peritoneal macrophages; assay: TNF-α release from LPS stimulated PEC, ELISA; format: cell-based; conditions: Peritoneal macrophage
Experimental: R. Cells were isolated and treated with or without various concentrations of CT1501R one hour prior to LPS activation ([…]). Twenty four hours later the supernalants were collected assayed for TNF-α by ELISA (+/-SD).
Murine peritoneal exudate cell macrophages (PEC) were isolated by perfusion of mouse peritoneum and plated into 96-well trays at 5×10^5 cells per well. […] At various times thereafter, supernatants were removed and levels of either TNF-α or IL-1α were assayed using commercial 96-well microtiter immunoassay kits (Genzyme; TNF; Endogen, Boston, Mass.; IL-1α) according to manufacturer's specifications. […] 4000 cells were plated into each well of a 96-well microtiter plate and allowed to incubate for 72 hrs at 37° C. […] Either the HUVEC or U937 cells were stimulated with either LPS, IL-1α or TNF-α for 12 hrs. For the adhesion assay, U937 cells were labeled with the fluorescent viability stain, 2',7'-bis-(2-carboxyethyl)-5-(and-6)-carboxyfluorescein acetoxymethyl ester (BCECF). […] The cells were washed once with full media and 50,000 cells/well added to the HUVEC cultures. The samples were incubated at 37° C. for 30 min, inverted and centrifuged for 10 min at 400×g. After addition of […] Hanks Balanced Salt Solution (HBSS), the microtiter plate was then analyzed on a Millipore Cytofiuor fluorescent plate reader (excitation 488 nm; emission 525 nm). […]

## C[C@@H](O)CCCCn1c(=O)c2c(ncn2C)n(C)c1=O [CT1501R, (R)-1-(5-hydroxyhexyl)-3,7-dimethylxanthine]
[1]
  potency relative to racemic mixture (M1): two to three time more potent than the racemic mixture
[1]; 3T3 Ras-transformed fibroblasts stimulated with IL-1β, at IC50 concentrations achievable in a clinical setting
  inhibition of LPAAT enzyme activity: significantly inhibited enzyme activity
[2]; 500 μM, read-out: inhibitory effects, % of the maximal LPS stimulation (1428 pg/ml)
  inhibition at 500 µM: ~40%
[2]; drug 1 hour before LPS (10 μg/ml LPS), read-out: IC50 for TNF-α inhibition (concentration for 50% inhibition)
  IC50: ~30 µM
